# Laboratory results as given in PubChem BioAssay AID2305 (GlaxoSmithKline (GSK), 2010).
# Values joined by “and” are separate entries in the source; they are usually repeats but may differ in a detail not shown here. Identical values can stand only once.
# System: P. falciparum 3D7 growth, pLDH absorbance
# Assay: blood-stage malaria parasite growth potency – strain 3D7, dose response (AID 2305)
row,SMILES,IC50
1,CC1(C)CCCN(C(=O)Cc2ccc3c(c2)CCCC3)C1CN1CC=CC1 (stereo not given),720 nM
2,COCC(=O)N(Cc1cccc(-c2ccc(CNCCc3ccccc3)cc2)c1)C1CCN(Cc2ccccc2)CC1,1100 nM
3,CN(C)CCOc1ccc2c(=O)cc(CCc3cccc(F)c3F)n(CC(=O)N(C)Cc3ccc(-c4ccc(C(F)(F)F)cc4)cc3)c2c1,1200 nM
4,CCCCCC1c2[nH]c3ccccc3c2CCN1C(=O)OCc1ccccc1 (stereo not given),390 nM
5,O[C@@H](c1ccccc1)[C@@H]1CN(Cc2ccccc2)CC[C@@]1(O)c1ccccc1,850 nM
6,COCCNC(=O)C(CNC(=O)c1ccc2c(c1)OCO2)NC(=O)c1ccc(-c2ccccc2)cc1 (stereo not given),970 nM
7,CNCCCCCCc1ccc(CC(C)NCC(O)c2cccc(Cl)c2)cc1 (stereo not given),850 nM
8,COc1ccc(O)c(C(=O)c2cc(C#N)c(=O)n(-c3ccc(Oc4ccccc4)cc3)c2)c1,740 nM
9,c1ccc(CNc2cc(-c3ccccn3)nc(-c3ccccn3)n2)cc1,300 nM
10,C[C@H](Cc1ccc(C[C@@H](C)NCC(O)c2cc(Cl)c(N)c(Cl)c2)cc1)NCC(O)c1cc(Cl)c(N)c(Cl)c1 (stereo not given in full),890 nM
11,COc1ccc(Nc2nc(NCc3ccco3)c3ccccc3n2)cc1,740 nM
12,O=S(=O)(c1csc2ccccc12)N(CCC(O)(C(F)(F)F)C(F)(F)F)Cc1cccc(O)c1,360 nM
13,COc1cc2nc(N3CCC(CNC(=O)c4ccc(-c5ccc(-c6noc(C)n6)cc5C)cc4)CC3)nc(N)c2cc1OC,220 nM
14,CC[C@H](NC(=O)c1c(N)c(-c2sccc2Cl)nc2ccccc12)c1ccccc1,910 nM
15,Clc1cccc(Nc2ccc3c(N4CCCCC4)ncnc3n2)c1,580 nM
16,C#CCOc1ccc(CC(C)NCC(O)c2cccc(C(F)(F)F)c2)cc1 (stereo not given),1190 nM and 1030 nM
17,COc1ccc2nccc([C@@H](O)CN3CCC(NC(=O)c4ccc(Cl)c(OC)c4)CC3)c2c1,790 nM
18,CC(=O)Nc1cccc(CNCc2ccc(-c3cnc(N4CCCC(c5ccccc5)C4)nc3)cc2)c1 (stereo not given),1190 nM
19,Cc1cccc(NC(=O)Nc2ccc(I)c(OCCN(C)C)c2)c1C,730 nM
20,CCCCC(CC)NC(=O)[C@H]1CNCCN1C(=O)CCCc1ccccc1 (stereo not given in full),890 nM
21,COCCNCc1ncsc1-c1ccc2c(Nc3ccc(Oc4ccccc4)cc3)ccnc2c1,900 nM
22,Cc1ccc2[nH]c(-c3ccc(C(=O)NC4CCN(Cc5ccccc5)CC4)cc3)nc2c1C,730 nM
23,CCCNC[C@@H](O)[C@H](Cc1ccccc1)NC(=O)c1cc2c3c(c1)c(CC)cn3CCS(=O)(=O)N2C,100 nM
24,NC(N)=Nc1nc(-c2cccc(NC(=O)Cc3ccccc3)c2)cs1,1000 nM

row,SMILES,IC50
1,NS(=O)(=O)c1ccc(CNc2ccc3ncc(-c4ccc(OC(F)(F)F)cc4)n3n2)cc1,580 nM
2,COc1cccc(CCc2cccc(CNC(C)=O)c2)c1,1040 nM
3,O=C(/C=C/c1ccc(Cl)c(Cl)c1)NCCCCCN1CCCN(C(=O)Nc2ccc(Cl)cc2)CC1,740 nM
4,COc1cccc(-c2ccc(C(=O)NCC3CCCN(Cc4cccc(C(F)(F)F)c4)C3)s2)c1 (stereo not given),1140 nM
5,Cc1cc(C2CCN(CCCCNC(=O)c3ccc(-c4ccc(C(F)(F)F)cc4)cc3)CC2)c(C)cc1OCC(N)=O,800 nM
6,Cc1cc(OCC(=O)Nc2ccc(-c3nc4ccccc4[nH]3)cc2)cc(C)c1Cl,740 nM
7,C/C=C1/CN2CC[C@H]1C[C@H]2[C@H](O)c1ccnc2ccc(O)cc12,490 nM
8,Cc1cc(-c2ccc3occ(CCN)c3c2)cnc1N,880 nM
9,CCCN(CCC)c1nn2c(=O)c(C(=O)N3CCN(Cc4ccccc4)CC3)cnc2s1,1000 nM
10,COc1cc(/C=C/C(=O)NCC(CCNc2cc(=O)c3ccccc3[nH]2)NCc2cc(Br)cc(Br)c2)cc(OC)c1 (stereo not given),910 nM
11,CS(=O)(=O)c1ccc(-c2cncc(Nc3cccc([N+](=O)[O-])c3)c2)cc1,770 nM
12,CC(C)CCN1CCCN(Cc2cccc(C(=O)Nc3ccc(C(C)(C)C)cc3)c2)CC1,1100 nM
13,O=C(Nc1ccc(C(=O)N2CCN(CCN3CCN(c4cccc(C(F)(F)F)c4)CC3)CC2)cc1)c1ccc(OC(F)(F)F)cc1,690 nM
14,COc1cc(CN2CCC(C(=O)Nc3ccc(-c4cccc(C)c4)cc3)CC2)ccc1O,1120 nM
15,COc1ccc(-c2cc(NCc3ccc(-n4ccnc4)cc3)nc(Nc3ccccc3)n2)cc1,970 nM
16,C=C[C@H]1CN2CC[C@H]1C[C@H]2[C@H](O)c1ccnc2ccccc12,170 nM
17,COC(=O)c1ccc(CC(C)NCC(O)c2cccc3ccccc23)cc1 (stereo not given),940 nM
18,Cc1cc(N[C@@H](Cc2ccccc2)C(=O)NCc2cccc(F)c2)nc(NCCOc2ccccc2)n1,790 nM
19,CCc1c(C)c2ccc3c(c2oc1=O)CN(CCc1ccc(F)cc1)CO3,1230 nM
20,CC[C@H]1CN2CCc3cc(OC)c(OC)cc3[C@@H]2C[C@@H]1CC1=NCCc2c1[nH]c1ccc(OCc3ccccc3)cc21,770 nM
21,O=C(NCC1Cc2cc(Oc3ccccc3)ccc2O1)c1ccc([N+](=O)[O-])o1 (stereo not given),920 nM
22,Cc1ccc(N(CCC(=N)N)Cc2ccccc2)cc1,660 nM
23,CCc1nc2ccc(C(=O)OC)nc2n1Cc1ccc2oc(-c3ccccc3N)c(Br)c2c1,820 nM
24,CCOc1ccc(-c2nonc2NC(=O)c2ccccc2F)cc1OCC,840 nM

row,SMILES,IC50
1,C=C[C@H]1CN(CCCCCCC)CC[C@H]1CCNc1ccnc2ccc(OC)cc12,60 nM
2,CCN(CC)CCNc1ccc(Nc2ccnc3cc4ccccc4cc23)cc1,200 nM
3,CCCc1ccc(Cc2cnc3nc(N)nc(N)c3c2C)cc1,280 nM
4,Cc1cc(F)ccc1Nc1nc(N(C)c2ccccc2)c2cc(OCCN(C)C)ccc2n1,790 nM
5,Cc1cc(N2CCCC2)nc(Nc2ccc(NC(=O)c3ccc4c(c3)OCO4)cc2)n1,810 nM
6,C[C@@H]1CN(c2cnn(C/C=C/c3ccc(NC(=O)c4ccc(Cl)cc4)cc3)c(=O)c2Cl)C[C@H](C)N1,850 nM
7,NC(=O)c1ccc(NCC(=O)Nc2cccc(-c3cccc(-c4nc5ccc(F)cc5[nH]4)c3)c2)cc1,870 nM
8,CCOc1ccc(C2CCN(CCCCNC(=O)c3ccc(NC(=O)c4ccc(Cl)cc4)cc3)CC2)c(Cl)c1,730 nM
9,CCCCCCCc1c(C)[nH]c2cccc(OC)c2c1=O,1130 nM
10,Cc1cc(=O)[nH]c(/N=C(/N)NOCCCc2ccccc2)n1,760 nM
11,Cc1cccc(CNc2ncc(C)c(NCCC(=O)Nc3ccccc3)n2)c1,1150 nM
12,O=C(/C=C/c1ccc(Cl)c(Cl)c1)NCCCCCCN1CCCN(C(=O)Nc2ccc(Cl)c(Cl)c2)CC1,670 nM
13,CCN(CCNC(=O)Cn1c(C)cc2cc([N+](=O)[O-])ccc21)c1cccc(C)c1,1010 nM
14,CCCCCCCCS(=O)(=O)NCCCC1CCN(CCCCCNC(=O)C=Cc2ccc(Cl)c(Cl)c2)CC1,860 nM
15,Cc1ccc(Cn2ncc(N3CCC(N)CC3)c(Cl)c2=O)cc1NC(=O)Nc1ccc(-c2ccccc2)cc1,920 nM
16,COc1cc(C(C)C)ccc1C1CCN(CCCCNC(=O)c2ccc(NC(=O)c3ccc(Cl)cc3)cc2)CC1,450 nM
17,Oc1ccc(-c2nc(-c3ccc4oc5ccc(-c6[nH]c(-c7ccc(O)cc7)nc6-c6ccccc6)cc5c4c3)c(-c3ccccc3)[nH]2)cc1,1110 nM
18,COc1ccc(-c2cnc3ccc(NCc4ccc(S(N)(=O)=O)cc4)nn23)cn1,870 nM
19,Cc1nc2nc(N)nc(N)c2c(C)c1Cc1ccc(N)cc1,640 nM
20,CCC(CC)CN1C(=O)C(C)(c2ccccc2)N=C1N (stereo not given),1060 nM
21,c1ccc(Oc2ccc(Nc3ccnc(Nc4ccc(OCCN5CCCCC5)cc4)n3)cc2)cc1,600 nM
22,COc1ccccc1C1CCN(C2CCC(NC(=O)/C=C/c3cc(F)cc(F)c3)CC2)CC1 (stereo not given),1110 nM
